Data from patent US20220347279A1, “VCX/Y PEPTIDES AND USE THEREOF” (BOARD OF REGENTS, THE UNIVERSITY OF TEXAS SYSTEM, priority 2019, published 2022).

What was measured:
Assay type in all cases: cell-based
VCX54 TCR-T cells [1] = test: Overlap peptide library screening: peptide-pulsed T2 cells co-cultured with VCX54 TCR-T, ICS of activation markers; conditions: peptide pulsed to T2 cells, overnight co-culture
Experimental: Overlap peptide library screening was performed for the recognition target peptide of VCX54 TCR-T cells (FIG. 1). The 9-mer peptide with 8 amino acid overlap peptide library covering the whole length of VCX3A protein was screened for the VCX54 TCR-T cell recognized target. The peptide was pulsed to T2 cell one by one and co-cultured with VCX54 TCR-T. After overnight culturing, the activated marker of T cells such as CD137, CD69, IFN-r and TNFa were detected using intracellular cytokine staining (ICS).
(§1) Intracellular cytokine staining (ICS) assay: The T cells were incubated with target cells at 10:1 ration in the presence of brefeldin A (BFA) at 37° C. overnight. After co-culturing, the T cells were harvested and washed. The cells were stained with flow antibody anti surface marker first. After that, the cells were washed and fixed with Fix Buffer and then were permeabilized using Permeabilizing Solution (eBioscience). Permeabilized cells are then stained with intracellular cytokine flow antibody. Finally, the level of cytokine producing in the cells was analyzed using FACS.

VCX54 TCR-T cells [2] = test: VCX118 peptide cross reaction detection (peptide titration on T2 cells, ICS); conditions: T2 cells pulsed with high concentration of peptide
Experimental: For VCX118 peptide cross reaction detection, different concentration of VCX118 peptide were used to pulse T2 cells and then co-cultured with VCX54 TCR-T cells. […] M26 peptide was used as a negative control (FIG. 2).
as §1

HLA-A2 = molecular target: T1, HLA-A2 (Homo sapiens, UniProt P04439, D140Y/D185E/D98H/E176V/E277Q/G131W/G231S/I119V/I121R/I166T/I218V/L300P/L318F/N151K/N90K/P208A/P217A/Q86G/Q94H/R138H/R169H/T345S); test: VCX118 peptide HLA-A2 binding assay (HLA-A2 stability analysis on T2 cells); conditions: T2 cells pulsed with different concentrations of peptide
T1 construct: endogenous in cells; host or cells: T2 cells
Experimental: Different concentrations of VCX118 peptide were pulsed to T2 cells, and the HLA-A2 stability analysis was performed to detect the VCX118 peptide binding ability. VCX54, M26 and M27 peptide were used as control.

VCX54 TCR-T cells [3] = test: Peptide titration killing assay (calcein-AM quenching assay); conditions: peptide-pulsed T2 cells labeled with Calcein-AM, high concentrations
From the text: Different concentrations of VCX118 peptide were pulsed to T2 cells, labeled with Calcein-AM, and co-cultured with VCX54 TCR-T cells. The calcein-AM quenching assay was used to detect VCX54 TCR-T killing ability in response to the antigen.

VCX54 TCR-T cells [4] = test: VCX54 TCR-T recognition of longer peptides comprising VCX118 (ICS); conditions: peptides pulsed to T2 cells, co-cultured with VCX54 TCR-T cells
Experimental: Different length of peptides with VCX118 were pulsed to T2 cells and co-cultured with VCX54 TCR-T cells. The VCX118 peptide was used as a control.
as §1

| Substance | induction of response of VCX54 TCR-T (CD137, CD69, IFN-r, TNFa by ICS) (VCX54 TCR-T cells [1]) | ICS response relative to VCX54 original peptide (VCX54 TCR-T cells [2]) | cross recognition by VCX54 TCR-T (ICS) (VCX54 TCR-T cells [2]) | binding ability to HLA-A2 (HLA-A2) | VCX54 TCR-T killing response relative to VCX54 peptide (VCX54 TCR-T cells [3]) | recognition by VCX54 TCR-T cells (ICS) (VCX54 TCR-T cells [4]) |
| --- | --- | --- | --- | --- | --- | --- |
| SEVEEPLSQ (listed as Homo sapiens) [VCX118, 9-mer VCX/Y peptide shared with all VCX/Y family members] | also be able to induce the response of VCX54 TCR-T cells | higher than the VCX54 original peptide | cross recognized by VCX54 TCR-T | weak binding ability | higher than the VCX54 peptide | only recognized the VCX118 peptide |
| VCX54: the target (original) 9-mer peptide of VCX3A recognized by VCX54 TCR-T cells; sequence not printed (GAATKMAAV) [reference compound] | able to induce the response of VCX54 TCR-T |  |  |  |  |  |
